These results are taken from article PMC8286840, “Identifying SARS-CoV-2 antiviral compounds by screening for small molecule inhibitors of Nsp3 papain-like protease” (Biochemical Journal, 2021).

The target of assay [1] is T1, SARS-CoV-2 PLpro (nsp3 1564–1878) (Severe acute respiratory syndrome coronavirus 2, UniProt P0DTD1). Nature of the assay: biochemical. Particulars: low concentration screen, read-out: % of control remaining. The arrangement: FRET-quenched peptide (Pro3) cleavage by PLpro, 10 min pre-incubation, slope over 20 min, normalised to no-compound control.
Assay [2] has as its target T1, SARS-CoV-2 PLpro (nsp3 1564–1878). Nature of the assay: biochemical. The arrangement: FRET-quenched peptide (Pro3) cleavage by PLpro, 10 min pre-incubation, slope over 20 min, normalised to no-compound control. Particulars: high concentration screen, read-out: % of control remaining.

Structures are written as SMILES. Structures can show the parent of a compound that is named as a salt. Where two headings read alike, the source gives them in different places. Where a SMILES comes first, the peptide text is derived from it. [ ]: non-standard residue; d: D form. The star is where a group is joined. Hexanoyl = CCCCCC(=O)*; Ahx = NCCCCCC(=O)O

With `CN1CCN(CCCN2c3ccccc3Sc3ccc(C(F)(F)F)cc32)CC1` [Trifluoperazine dihydrochloride], the remaining activity at 1.25 µM in assay [1] (Well no.=1326) came to 101%. Further, the remaining activity at 3.75 µM in assay [2] (Well no.=1326) is 100%.

With `c1ccc2c(-c3ccncc3)c[nH]c2c1` [Rho Kinase Inhibitor III, Rockout], in assay [1] (Well no.=2557), the remaining activity at 1.25 µM worked out at 101%. For the same molecule, the remaining activity at 3.75 µM in assay [2] (Well no.=2557) is 103%.

In the case of `C=C1CC[C@H](O)C/C1=C\C=C1/CCC[C@]2(C)[C@@H]([C@H](C)CC[C@@H](O)C(C)(C)O)CC[C@@H]12` [24(R),25-Dihydroxyvitamin D3], in assay [1] (Well no.=4424), the remaining activity at 1.25 µM came out at 95.3%. Moreover, in assay [2] (Well no.=4424), the remaining activity at 3.75 µM was determined as 88.6%.

Turning to `CC(C)c1ccc(C(=O)N=C(N)N)cc1S(C)(=O)=O` [N''-[4-isopropyl-3-(methylsulfonyl)benzoyl]guanidine], in assay [1] (Well no.=5586), the remaining activity at 1.25 µM was determined as 91.7%. The remaining activity at 3.75 µM in assay [2] (Well no.=5586) is 91.3%.

`c1ccc2c(c1)CN1CCCC1=N2` [Desoxypeganine]: the remaining activity at 1.25 µM in assay [1] (Well no.=3278) came to 98%. Moreover, the remaining activity at 3.75 µM in assay [2] (Well no.=3278) worked out at 97.7%.

`O=C(c1ccc2c(c1)OCCO2)N1CCCCC1` [CX 546]: in assay [1] (Well no.=729), the remaining activity at 1.25 µM was 103%. Further, the remaining activity at 3.75 µM in assay [2] (Well no.=729) amounted to 99.5%.

Take `C[C@@H]1c2cc(O)c(O)cc2CCN1C` [N-methyl-R-salsolinol hydrobromide]: the remaining activity at 1.25 µM in assay [1] (Well no.=830) was 99.6%. Further, the remaining activity at 3.75 µM in assay [2] (Well no.=830) amounted to 101%.

`N#CC(c1ccc(Cl)cc1)c1c(Cl)cc(-n2ncc(=O)[nH]c2=O)cc1Cl` (stereo not shown) [Diclazuril]: the remaining activity at 1.25 µM in assay [1] (Well no.=5268) was 91.9%. Further, in assay [2] (Well no.=5268), the remaining activity at 3.75 µM came out at 96.8%.

Regarding `C[C@H]1[C@H](OC(=O)CCC(=O)O)O[C@@H]2O[C@@]3(C)CC[C@H]4[C@H](C)CC[C@@H]1[C@@]24OO3` [Artesunate], the remaining activity at 1.25 µM in assay [1] (Well no.=2200) stood at 100%; in assay [1] (Well no.=3083), 96%. Also, the remaining activity at 3.75 µM came out at 98.2% in assay [2] (Well no.=2200) and 102% in assay [2] (Well no.=3083).

Regarding `CN(C)S(=O)(=O)c1ccc2c(c1)/C(=C/c1cc3c([nH]1)CCCC3)C(=O)N2` [SU6656], the remaining activity at 1.25 µM in assay [1] (Well no.=2500) was determined as 94.8%; in assay [1] (Well no.=8074), 101%. Moreover, the remaining activity at 3.75 µM amounted to 99.1% in assay [2] (Well no.=2500) and 98.5% in assay [2] (Well no.=8074).

Take `O=C(O)P(=O)(O)O` [Foscarnet Sodium]: the remaining activity at 1.25 µM in assay [1] (Well no.=5321) came out at 101%. The remaining activity at 3.75 µM in assay [2] (Well no.=5321) was 95.6%.

For `CC(C)NCC(O)COc1ccc(CC(N)=O)cc1` (stereo not shown) [Atenolol], the remaining activity at 1.25 µM amounted to 103% in assay [1] (Well no.=2131) and 97.3% in assay [1] (Well no.=7671). Moreover, the remaining activity at 3.75 µM in assay [2] (Well no.=2131) was 104%; in assay [2] (Well no.=7671) it was 98.5%.

As to `CNC(=O)OCC[N+](C)(C)C` [Methylcarbamylcholine chloride], the remaining activity at 1.25 µM in assay [1] (Well no.=1135) was determined as 95.1%. The remaining activity at 3.75 µM in assay [2] (Well no.=1135) is 96.5%.

As for `CC(C)CCC[C@H](C)[C@H]1CC[C@H]2[C@@H]3CCC4=CC(=NO)CC[C@]4(C)[C@H]3CC[C@]12C` [(20S)-cholest-4-en-3-one oxime], in assay [1] (Well no.=5966), the remaining activity at 1.25 µM was 94.3%. In addition, the remaining activity at 3.75 µM in assay [2] (Well no.=5966) came out at 96.1%.

As for `Cn1c(=O)c2[nH]c(-c3ccccc3)nc2n(C)c1=O` [1,3-Dimethyl-8-phenylxanthine], the remaining activity at 1.25 µM in assay [1] (Well no.=952) stood at 103%. For the same molecule, the remaining activity at 3.75 µM in assay [2] (Well no.=952) came to 99.2%.

`Nc1ncn([C@H]2C[C@H](O)[C@@H](CO)O2)c(=O)n1` [Decitabine]: the remaining activity at 1.25 µM in assay [1] (Well no.=5103) is 102%. Further, the remaining activity at 3.75 µM in assay [2] (Well no.=5103) stood at 99.8%.

Take `CCCCCC(=O)N[C@@H](Cc1ccc(O)cc1)C(=O)N[C@H](C(=O)NCCCCCC(N)=O)[C@@H](C)CC` [Dihexa] (Hexanoyl-Tyr-Ile-[Ahx]-NH2): the remaining activity at 1.25 µM in assay [1] (Well no.=8646) was found to be 98.6%. Besides, the remaining activity at 3.75 µM in assay [2] (Well no.=8646) stood at 98.4%.

Regarding `COc1ccc(-c2oc3c(CC=C(C)C)c(O)cc(O)c3c(=O)c2O[C@@H]2O[C@@H](C)[C@H](O)[C@@H](O)[C@H]2O)cc1` [Baohuoside I], the remaining activity at 1.25 µM in assay [1] (Well no.=6684) worked out at 108%; in assay [1] (Well no.=7047), 101%. In addition, the remaining activity at 3.75 µM in assay [2] (Well no.=6684) turned out to be 102%; in assay [2] (Well no.=7047), 96.4%; in assay [2] (Well no.=8129), 99.8%.

With `Clc1ccc2c(c1)C(N1CCNCC1)=Nc1ccccc1O2` [Amoxapine], the remaining activity at 1.25 µM was 97.7% in assay [1] (Well no.=158) and 102% in assay [1] (Well no.=1690). Further, the remaining activity at 3.75 µM in assay [2] (Well no.=158) came to 97.1%; in assay [2] (Well no.=1690) it was 103%.

`Cc1cc(I)ccc1Nc1c(C(=O)NOCC2CC2)cc(F)c(F)c1F` [PD 198306 - N-(Cyclopropylmethoxy)-3,4,5-trifluoro-2-[(4-iodo-2-methylphenyl)amino]-benzamide]: the remaining activity at 1.25 µM in assay [1] (Well no.=2582) stood at 92.1%. The remaining activity at 3.75 µM in assay [2] (Well no.=2582) was determined as 87.7%.

Consider `COC(=O)[C@]1(O)C[C@@H]2O[C@@]1(C)n1c3ccccc3c3c4c(c5c6ccccc6n2c5c31)C(=O)NC4` [K-252a, Nocardiopsis sp.], for which the remaining activity at 1.25 µM in assay [1] (Well no.=2552) stood at 95.7%. The remaining activity at 3.75 µM in assay [2] (Well no.=2552) is 95.2%.

Regarding `CO[C@H]1[C@@H](O)[C@@H](C)O[C@H](O[C@H]2[C@H](Oc3cccc4c(O)c5c(=O)oc6ccc(C)c7c(=O)oc(c34)c5c67)O[C@H](C)[C@H](O)[C@@H]2O)[C@@H]1O` [Chartreusin], in assay [1] (Well no.=3508), the remaining activity at 1.25 µM turned out to be 96.6%. Besides, in assay [2] (Well no.=3508), the remaining activity at 3.75 µM was determined as 98.4%.

Take `CC(CN1c2ccccc2Sc2ccccc21)N(C)C` (stereo not shown): the remaining activity at 1.25 µM in assay [1] (Well no.=3844) stood at 101%. Moreover, the remaining activity at 3.75 µM in assay [2] (Well no.=3844) came out at 97.9%.

As to `C[C@@H](OC[C@@]1(c2ccccc2)CC[C@]2(CCC(=O)N2)CN1)c1cc(C(F)(F)F)cc(C(F)(F)F)c1` [Rolapitant], the remaining activity at 1.25 µM in assay [1] (Well no.=7469) amounted to 104%. Further, the remaining activity at 3.75 µM in assay [2] (Well no.=7469) came out at 96.2%.

In the case of `N[C@H](Cc1c[nH]c2ccccc12)C(=O)N/N=C/c1ccc2nccnc2c1` [Rhosin (hydrochloride)], in assay [1] (Well no.=7170), the remaining activity at 1.25 µM worked out at 91.4%. For the same molecule, in assay [2] (Well no.=7170), the remaining activity at 3.75 µM was 93%.

Turning to `CN(C)N(C)C(=O)[C@@]1(Cc2ccccc2)CCCN(C(=O)[C@@H](Cc2c[nH]c3ccccc23)NC(=O)C(C)(C)N)C1` [Anamorelin], the remaining activity at 1.25 µM in assay [1] (Well no.=8437) stood at 97.3%. Besides, the remaining activity at 3.75 µM in assay [2] (Well no.=8437) worked out at 96.9%.

`CCN(CC)CCCCCCCCOC(=O)c1cc(OC)c(OC)c(OC)c1` [TMB-8 hydrochloride]: the remaining activity at 1.25 µM in assay [1] (Well no.=101) was 104%. In addition, in assay [2] (Well no.=101), the remaining activity at 3.75 µM turned out to be 104%.

Turning to `NCC(CC(=O)O)c1ccc(Cl)cc1` (racemic), in assay [1] (Well no.=31), the remaining activity at 1.25 µM is 96.2%. Further, the remaining activity at 3.75 µM in assay [2] (Well no.=31) was found to be 97.2%.
